Data on 8 molecules can be found in paper PMC4935745, “Synthesis and stereochemical determination of an antiparasitic pseudo-aminal type monoterpene indole alkaloid” (Journal of Natural Medicines, 2016).

Values after ≈ are worked out from the molar mass of the structure shown. Like-named read-outs stand apart in the source and are kept apart here.

Assay type in all cases: cell-based
Series [1] relates to Plasmodium falciparum (chloroquine-susceptible FCR3 strain). Put plainly: In vitro antimalarial activity, FCR3 strain. The note with it: for Selectivity index (SI) M/F: MRC-5/FCR3; for IC50: Plasmodium falciparum, FCR3, chloroquine-sensitive strain, in vitro. The method, then: (§1) Naturally occurring and synthetic compounds were tested for antimalarial activity against Plasmodium falciparum parasites (chloroquine-resistant K1 strain and chloroquine-susceptible FCR3 strain) and for cytotoxicity (against human MCR-5 cells), in comparison with the first-line antimalarial artemisinin.

A short description of series [2]: Cytotoxicity against human MRC-5 cells. The note with it: human. The procedure:
as §1

Series [3] concerns Plasmodium falciparum (chloroquine-resistant K1 strain). Description: In vitro antimalarial activity, K1 strain. Conditions: for Selectivity index (SI) M/K: MRC-5/K1; for IC50: Plasmodium falciparum, K1, chloroquine-resistant strain. The method, then:
as §1

The test system of series [4] is MRC-5 cells. Description: Cytotoxicity against human MRC-5 cells. The note with it: human MRC-5 cells. The method, then:
as §1

Where [5] appears, read: MRC-5 cells, human MRC-5 cells, read-out: Cytotoxicity MRC-5 IC50.

A word on the IC50: it is the concentration at which inhibition is half-maximal. Take `C/C=C1/CNCC[C@@H]1[C@@](C)(O)c1cc2ccccc2[nH]1` (racemic) [(±)-(15S,16R)-37]: the “Selectivity index (SI) M/F” value in series [1] is less than 3.3. Also, the 50% inhibitory concentration (IC50) is more than 12.5 µg/mL in series [1], 40.8 µg/mL (≈ 151 µM) in series [2] (setting [5]) and 8.98 µg/mL (≈ 33.2 µM) in series [3] (in vitro). In series [3], the “Selectivity index (SI) M/K” value is 4.5.

As to `CC=C1CN2CCC1C(C)(O)c1[nH]c3ccccc3c1C2` (racemic) [Synthetic (±)-(15S*,16S*)-1, (±)-(15S*,16S*)-16-hydroxy-16,22-dihydroapparicine], the half-inhibitory concentration (IC50) in series [2] (setting [5]) was 33.3 µg/mL (≈ 118 µM); in series [3] (in vitro), more than 12.5 µg/mL.

Consider `CC=C1CN2CCC1C(C)(O)c1[nH]c3ccccc3c1C2` (single isomer, unassigned; (+)) [Synthetic (+)-(15S,16R)-1], for which, in series [1], the “Selectivity index (SI) M/F” value stood at 6.1 and the IC50 was 8.37 µg/mL (≈ 29.6 µM). The “Cytotoxicity MRC-5 IC50” value in series [4] turned out to be 51.2 µg/mL. For the same molecule, the “Antimalarial activity against chloroquine-resistant P. falciparum (in words)” value in series [3] (K1 strain, in vitro) was “moderate/weak antimalarial activity”. Moreover, the “Selectivity index (SI) M/K” value in series [3] is reported as 5.7. Besides, the “Antimalarial activity K1 IC50” value in series [3] (chloroquine-resistant strain, in vitro) is 9.00 µg/mL.

Consider `C/C=C(/COC(=O)C(C)(C)C)[C@H](CCN=[N+]=[N-])[C@@](C)(O)c1cc2ccccc2n1CO[Si](C)(C)C(C)(C)C` [(−)-(15S,16R)-32], for which the IC50 in series [1] and in series [3] (in vitro) was more than 12.5 µg/mL throughout.

`C/C=C(/CO)[C@H](CCN=[N+]=[N-])[C@@](C)(O)c1cc2ccccc2[nH]1` [(−)-(15S,16R)-33]: the “Selectivity index (SI) M/F” value in series [1] stood at 2.5. The IC50 in series [1] was found to be 7.17 µg/mL (≈ 22.8 µM); in series [2] (setting [5]) it was 17.8 µg/mL (≈ 56.6 µM); in series [3] (in vitro) it was 7.58 µg/mL (≈ 24.1 µM). Moreover, the “Selectivity index (SI) M/K” value in series [3] stood at 2.3.

Regarding `C/C=C(/COc1ncccc1[N+](=O)[O-])[C@H](CCN=[N+]=[N-])[C@@](C)(O)c1cc2ccccc2[nH]1` [(−)-(15S,16R)-34], the half-inhibitory concentration (IC50) in series [1] was more than 12.5 µg/mL; in series [2] (setting [5]), more than 100 µg/mL; in series [3] (in vitro), 8.04 µg/mL (≈ 18.4 µM). For the same molecule, in series [3], the “Selectivity index (SI) M/K” value is recorded as more than 12.4.

Consider `C/C=C1/C(=O)O[C@H](C)[C@H]1CCN=[N+]=[N-]` [(−)-(15S,16R)-39], for which the “Selectivity index (SI) M/F” value in series [1] is given as less than 4.3. In addition, the values for the IC50 in series [1], in series [2] (setting [5]) and in series [3] (in vitro) were more than 12.5 µg/mL, 54 µg/mL (≈ 277 µM) and 9.38 µg/mL (≈ 48 µM), respectively. Further, the “Selectivity index (SI) M/K” value in series [3] was 5.8.

As to `C[C@@H]1CC[C@H]2[C@@H](C)C(=O)O[C@@H]3O[C@@]4(C)CC[C@@H]1[C@]32OO4` [Artemisinin, reference compound], the “Selectivity index (SI) M/F” value in series [1] came out at 7528. Moreover, the IC50 in series [1] was 0.006 µg/mL (≈ 0.0213 µM); in series [2] (Cytotoxicity MRC-5 IC50), 45.2 µg/mL (≈ 160 µM); in series [3] (in vitro) it was 0.006 µg/mL (≈ 0.0213 µM). Also, in series [3], the “Selectivity index (SI) M/K” value worked out at 7528.
